Assay results: the supplement of paper PMC10307832

Tests used:
Assay in all cases: relative viability (nuclei count vs DMSO), 5 days (fraction); higher = more cells survive
Linifanib = compound: Cc1ccc(F)c(NC(=O)Nc2ccc(-c3cccc4[nH]nc(N)c34)cc2)c1 [Linifanib]
Procedure, shortened: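 Following overnight incubation at 37 °C, lung cancer cell lines in 1536-well plates were pinned with five library-drug doses (not always all listed) in √10 steps on vehicle-anchored plates. The cells then spent 5 days without medium change before a combined fix, permeabilisation and Hoechst stain, 4× imaging and MetaXpress nuclear counts. Viability is the treated-to-vehicle ratio of nuclei, taken as the median across plates. Only plates with control CV below 25% and at least one doubling passed.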

Linifanib + Bortezomib = compound: Cc1ccc(F)c(NC(=O)Nc2ccc(-c3cccc4[nH]nc(N)c34)cc2)c1 [Linifanib] + CC(C)C[C@H](NC(=O)[C@H](Cc1ccccc1)NC(=O)c1cnccn1)B(O)O [Bortezomib] (partner 0.002 µM)
Procedure, shortened: (§1)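 Lung cancer cell lines, seeded in 1536-well plates, were treated the following day by pin tool with a single drug or with five library-drug doses (not always all listed) in √10 steps on top of a fixed anchor-drug dose. Cells were fixed and nuclei stained in one step after 5 days, and nuclei were counted. Relative viability is the nuclei count for treated wells divided by that for vehicle wells, reported as medians of duplicate plates.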

Linifanib + Navitoclax = compound: Cc1ccc(F)c(NC(=O)Nc2ccc(-c3cccc4[nH]nc(N)c34)cc2)c1 [Linifanib] + CC1(C)CCC(c2ccc(Cl)cc2)=C(CN2CCN(c3ccc(C(=O)NS(=O)(=O)c4ccc(N[C@H](CCN5CCOCC5)CSc5ccccc5)c(S(=O)(=O)C(F)(F)F)c4)cc3)CC2)C1 [Navitoclax] (partner 0.5 µM)
Procedure, shortened: as §1

Linifanib + Foretinib = compound: Cc1ccc(F)c(NC(=O)Nc2ccc(-c3cccc4[nH]nc(N)c34)cc2)c1 [Linifanib] + COc1cc2c(Oc3ccc(NC(=O)C4(C(=O)Nc5ccc(F)cc5)CC4)cc3F)ccnc2cc1OCCCN1CCOCC1 [Foretinib] (partner 0.25 µM)
Procedure, shortened: as §1

Linifanib + Lapatinib = compound: Cc1ccc(F)c(NC(=O)Nc2ccc(-c3cccc4[nH]nc(N)c34)cc2)c1 [Linifanib] + CS(=O)(=O)CCNCc1ccc(-c2ccc3ncnc(Nc4ccc(OCc5cccc(F)c5)c(Cl)c4)c3c2)o1 [Lapatinib] (partner 2 µM)
Procedure, shortened: as §1

Linifanib + Pictilisib = compound: Cc1ccc(F)c(NC(=O)Nc2ccc(-c3cccc4[nH]nc(N)c34)cc2)c1 [Linifanib] + CS(=O)(=O)N1CCN(Cc2cc3nc(-c4cccc5[nH]ncc45)nc(N4CCOCC4)c3s2)CC1 [Pictilisib] (partner 1 µM)
Procedure, shortened: as §1

Linifanib + Crizotinib = compound: Cc1ccc(F)c(NC(=O)Nc2ccc(-c3cccc4[nH]nc(N)c34)cc2)c1 [Linifanib] + C[C@@H](Oc1cc(-c2cnn(C3CCNCC3)c2)cnc1N)c1c(Cl)ccc(F)c1Cl [Crizotinib] (partner 1 µM)
Procedure, shortened: as §1

Linifanib + Linsitinib = compound: Cc1ccc(F)c(NC(=O)Nc2ccc(-c3cccc4[nH]nc(N)c34)cc2)c1 [Linifanib] + C[C@]1(O)C[C@@H](c2nc(-c3ccc4ccc(-c5ccccc5)nc4c3)c3c(N)nccn32)C1 [Linsitinib] (partner 1 µM)
Procedure, shortened: as §1

Linifanib + Alpelisib = compound: Cc1ccc(F)c(NC(=O)Nc2ccc(-c3cccc4[nH]nc(N)c34)cc2)c1 [Linifanib] + Cc1nc(NC(=O)N2CCC[C@H]2C(N)=O)sc1-c1ccnc(C(C)(C)C(F)(F)F)c1 [Alpelisib] (partner 2 µM)
Procedure, shortened: as §1

Linifanib + AZD7762 = compound: Cc1ccc(F)c(NC(=O)Nc2ccc(-c3cccc4[nH]nc(N)c34)cc2)c1 [Linifanib] + NC(=O)Nc1cc(-c2cccc(F)c2)sc1C(=O)N[C@H]1CCCNC1 [AZD7762] (partner 0.2 µM)
Procedure, shortened: as §1

Linifanib + Olaparib = compound: Cc1ccc(F)c(NC(=O)Nc2ccc(-c3cccc4[nH]nc(N)c34)cc2)c1 [Linifanib] + O=C(c1cc(Cc2n[nH]c(=O)c3ccccc23)ccc1F)N1CCN(C(=O)C2CC2)CC1 [Olaparib] (partner 8 µM)
Procedure, shortened: as §1

With NCI-H1703 the relative viability (Linifanib; 0.03162 µM) was 0.219, the relative viability (Linifanib; 0.1 µM) was 0.524 and the relative viability (Linifanib; 0.3162 µM) was 0.213. It also gave a relative viability (Linifanib + Bortezomib; first compound 0.03162 µM) of 0.175, a relative viability (Linifanib + Bortezomib; first compound 0.1 µM) of 0.243 and a relative viability (Linifanib + Bortezomib; first compound 0.3162 µM) of 0.154. The relative viability (Linifanib + Navitoclax; first compound 0.03162 µM) was 0.277, the relative viability (Linifanib + Navitoclax; first compound 0.1 µM) was 0.398 and the relative viability (Linifanib + Navitoclax; first compound 0.3162 µM) was 0.257. The relative viability (Linifanib + Foretinib; first compound 0.1 µM) was 0.345, the relative viability (Linifanib + Foretinib; first compound 0.3162 µM) was 0.294 and the relative viability (Linifanib + Lapatinib; first compound 0.1 µM) was 0.438. The relative viability (Linifanib + Lapatinib; first compound 0.3162 µM) was 0.267, the relative viability (Linifanib + Pictilisib; first compound 0.03162 µM) was 0.223 and the relative viability (Linifanib + Pictilisib; first compound 0.1 µM) was 0.211. The relative viability (Linifanib + Pictilisib; first compound 0.3162 µM) was 0.242, the relative viability (Linifanib + Crizotinib; first compound 0.1 µM) was 0.46 and the relative viability (Linifanib + Crizotinib; first compound 0.3162 µM) was 0.215. It also gave a relative viability (Linifanib + Linsitinib; first compound 0.03162 µM) of 0.141, a relative viability (Linifanib + Linsitinib; first compound 0.1 µM) of 0.27 and a relative viability (Linifanib + Linsitinib; first compound 0.3162 µM) of 0.129. For the same cell line, the relative viability (Linifanib + Alpelisib; first compound 0.03162 µM) was 0.205, the relative viability (Linifanib + Alpelisib; first compound 0.1 µM) was 0.293 and the relative viability (Linifanib + Alpelisib; first compound 0.3162 µM) was 0.158. The relative viability (Linifanib + AZD7762; first compound 0.1 µM) was 0.147, the relative viability (Linifanib + AZD7762; first compound 0.3162 µM) was 0.118 and the relative viability (Linifanib + Olaparib; first compound 0.03162 µM) was 0.151. For the same cell line, the relative viability (Linifanib + Olaparib; first compound 0.1 µM) was 0.269 and the relative viability (Linifanib + Olaparib; first compound 0.3162 µM) was 0.125.
